Data from the supplement of paper PMC10307832.

Assays:
Assay in all cases: relative viability (nuclei count vs DMSO), 5 days (fraction); higher = more cells survive
Dinaciclib + Decitabine = compound: CCc1cnn2c(NCc3ccc[n+]([O-])c3)cc(N3CCCC[C@H]3CCO)nc12 [Dinaciclib] + Nc1ncn([C@H]2C[C@H](O)[C@@H](CO)O2)c(=O)n1 [Decitabine] (partner 2 µM)
Summary of the method: (§1)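 Each reported value is a median over duplicate plates. It expresses relative viability: treated-well nuclei count divided by vehicle-well nuclei count. Lung cancer cell lines in 1536-well plates were dosed by pin tool a day after seeding, alone with one drug or with a fixed anchor-drug dose plus five library-drug doses (not always all listed) in √10 steps, and nuclei were counted after 5 days.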

Dinaciclib + Bortezomib = compound: CCc1cnn2c(NCc3ccc[n+]([O-])c3)cc(N3CCCC[C@H]3CCO)nc12 [Dinaciclib] + CC(C)C[C@H](NC(=O)[C@H](Cc1ccccc1)NC(=O)c1cnccn1)B(O)O [Bortezomib] (partner 0.002 µM)
Summary of the method: as §1

Dinaciclib + OSI-027 = compound: CCc1cnn2c(NCc3ccc[n+]([O-])c3)cc(N3CCCC[C@H]3CCO)nc12 [Dinaciclib] + COc1cccc2cc(-c3nc([C@H]4CC[C@H](C(=O)O)CC4)n4ncnc(N)c34)[nH]c12 [OSI-027] (partner 0.5 µM)
Summary of the method: as §1

Dinaciclib + Crizotinib = compound: CCc1cnn2c(NCc3ccc[n+]([O-])c3)cc(N3CCCC[C@H]3CCO)nc12 [Dinaciclib] + C[C@@H](Oc1cc(-c2cnn(C3CCNCC3)c2)cnc1N)c1c(Cl)ccc(F)c1Cl [Crizotinib] (partner 1 µM)
Summary of the method: as §1

Dinaciclib + Pemetrexed = compound: CCc1cnn2c(NCc3ccc[n+]([O-])c3)cc(N3CCCC[C@H]3CCO)nc12 [Dinaciclib] + Nc1nc2[nH]cc(CCc3ccc(C(=O)N[C@@H](CCC(=O)O)C(=O)O)cc3)c2c(=O)[nH]1 [Pemetrexed] (partner 0.2 µM)
Summary of the method: as §1

Cell Line | relative viability (Dinaciclib + Decitabine; first compound 0.009487 µM) | relative viability (Dinaciclib + Decitabine; first compound 0.03 µM) | relative viability (Dinaciclib + Decitabine; first compound 0.09487 µM) | relative viability (Dinaciclib + Decitabine; first compound 0.3 µM) | relative viability (Dinaciclib + Bortezomib; first compound 0.009487 µM) | relative viability (Dinaciclib + Bortezomib; first compound 0.03 µM) | relative viability (Dinaciclib + Bortezomib; first compound 0.09487 µM) | relative viability (Dinaciclib + Bortezomib; first compound 0.3 µM) | relative viability (Dinaciclib + OSI-027; first compound 0.009487 µM) | relative viability (Dinaciclib + OSI-027; first compound 0.03 µM) | relative viability (Dinaciclib + OSI-027; first compound 0.09487 µM) | relative viability (Dinaciclib + OSI-027; first compound 0.3 µM) | relative viability (Dinaciclib + Crizotinib; first compound 0.009487 µM) | relative viability (Dinaciclib + Crizotinib; first compound 0.03 µM) | relative viability (Dinaciclib + Crizotinib; first compound 0.09487 µM) | relative viability (Dinaciclib + Crizotinib; first compound 0.3 µM) | relative viability (Dinaciclib + Pemetrexed; first compound 0.009487 µM) | relative viability (Dinaciclib + Pemetrexed; first compound 0.03 µM) | relative viability (Dinaciclib + Pemetrexed; first compound 0.09487 µM) | relative viability (Dinaciclib + Pemetrexed; first compound 0.3 µM)
NCI-H1650 | 0.472 | 0.258 | 0.135 | 0.12 | 0.172 | 0.178 | 0.158 | 0.142 | 0.426 | 0.15 | 0.136 | 0.123 | 0.97 | 0.121 | 0.0986 | 0.113 | 0.366 | 0.335 | 0.152 | 0.0974
NCI-H1651 | 0.705 | 0.391 | 0.105 | 0.0596 | 0.96 | 0.763 | 0.25 | 0.0931 | 0.694 | 0.53 | 0.163 | 0.0729 | 0.941 | 0.685 | 0.188 | 0.0849 | 0.596 | 0.51 | 0.112 | 0.0533
NCI-H1666 | 0.831 | 0.487 | 0.326 | 0.333 | 0.528 | 0.19 | 0.164 | 0.18 | 0.857 | 0.484 | 0.375 | 0.346 | 0.742 | 0.194 | 0.202 | 0.271 | 0.933 | 0.399 | 0.504 | 0.491
NCI-H1734 | 0.5 | 0.277 | 0.134 | 0.139 | 0.644 | 0.148 | 0.121 | 0.116 | 0.471 | 0.13 | 0.11 | 0.116 | 0.464 | 0.163 | 0.1 | 0.12 | 0.417 | 0.147 | 0.149 | 0.136
NCI-H1755 | 0.754 | 0.733 | 0.261 | 0.239 | 0.889 | 0.884 | 0.171 | 0.17 | 0.763 | 0.519 | 0.194 | 0.258 | 0.8 | 0.289 | 0.147 | 0.147 | 0.397 | 0.272 | 0.204 | 0.261
NCI-H1792 | 0.522 | 0.373 | 0.0508 | 0.0591 | 0.925 | 0.741 | 0.238 | 0.0774 | 0.729 | 0.539 | 0.36 | 0.174 | 0.994 | 0.747 | 0.184 | 0.0753 | 0.561 | 0.14 | 0.0501 | 0.0374
NCI-H1915 | 0.253 | 0.24 | 0.131 | 0.12 | 0.81 | 0.23 | 0.112 | 0.105 | 0.525 | 0.169 | 0.156 | 0.138 | 0.706 | 0.117 | 0.103 | 0.102 | 0.471 | 0.439 | 0.11 | 0.0872
NCI-H1975 | 0.327 | 0.176 | 0.135 | 0.143 | 0.29 | 0.126 | 0.109 | 0.12 | 0.783 | 0.347 | 0.0912 | 0.0908 | 0.765 | 0.222 | 0.139 | 0.129 | 0.275 | 0.288 | 0.146 | 0.16
NCI-H1993 | 0.702 | 0.462 | 0.445 | 0.406 | 1.18 | 0.551 | – | 0.61 | 0.538 | 0.57 | 0.625 | 0.6 | 0.735 | 0.766 | – | 0.642 | 0.592 | 0.452 | 0.484 | 0.427
NCI-H2009 | 0.41 | 0.294 | 0.081 | 0.0958 | 0.88 | 0.101 | 0.069 | 0.0948 | 0.528 | 0.0935 | 0.11 | 0.107 | 1.13 | 0.0796 | 0.0746 | 0.0749 | 0.977 | 0.459 | 0.0817 | 0.0842
NCI-H2023 | 0.157 | 0.0607 | 0.0544 | 0.0524 | 1 | 0.066 | 0.0634 | 0.0575 | 0.395 | 0.0919 | 0.052 | 0.067 | 0.93 | 0.0702 | 0.05 | 0.0622 | 0.165 | 0.0899 | 0.0697 | 0.0581
NCI-H2085 | 0.589 | 0.404 | 0.217 | 0.236 | 1.06 | 0.446 | 0.26 | 0.233 | 0.748 | 0.264 | 0.243 | 0.196 | 1.02 | 0.313 | 0.208 | 0.236 | 0.916 | 0.279 | 0.211 | 0.217
NCI-H2087 | 0.189 | 0.0863 | 0.0711 | 0.0804 | 0.998 | 0.135 | 0.142 | 0.123 | 0.529 | 0.0975 | 0.11 | 0.0895 | 1.3 | 0.136 | 0.128 | 0.13 | 0.687 | 0.109 | 0.106 | 0.101
NCI-H2126 | 0.524 | 0.393 | 0.187 | 0.176 | 1.06 | 0.973 | 0.524 | 0.208 | 0.784 | 0.381 | 0.251 | 0.204 | 1.01 | 0.565 | 0.213 | 0.215 | 0.695 | 0.495 | 0.198 | 0.192
NCI-H2347 | 0.673 | 0.383 | 0.212 | 0.232 | 1.23 | 0.226 | 0.239 | 0.215 | 0.437 | 0.204 | 0.144 | 0.151 | 0.734 | 0.146 | 0.202 | 0.156 | 0.459 | 0.319 | 0.228 | 0.224
NCI-H2405 | 0.7 | 0.261 | 0.212 | 0.219 | 0.904 | 0.761 | 0.207 | 0.271 | 0.625 | 0.409 | 0.226 | 0.198 | 0.772 | 0.224 | 0.201 | 0.209 | 0.803 | 0.247 | 0.213 | 0.209
